This is an account of results in patent US8263606B2 (Xenon Pharmaceuticals Inc., priority 2008, dated 2012).

The subject of one data set is sodium channel. The data set can be described thus: Guanidine influx assay (14C-guanidine radiotracer flux, in vitro). The format is cell-based, human or rat. To be noted: guanidine influx assay using a known cell line that expresses a sodium channel. An outline of the steps:
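Cells (human/rat Nav, endogenous or recombinant), ~100,000/well, 20-24 h 37 °C/5% CO2. Wash LNHBSS (150 mM choline Cl, HEPES, glucose). Add cpd + aconitine/14C-guanidine mix, RT. Wash, dry, scintillation count. IC50: 4-PL fit; selectivity as IC50 ratio vs reference channel, e.g. Nav1.5.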

Data set [1] relates to inactivated state of the channel of interest (sodium channel). The data set can be described thus: Electrophysiological assay (whole cell voltage clamp, in vitro). To be noted: affinity for the inactivated state of the channel of interest. The format is cell-based. Put shortly: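 Whole-cell voltage clamp at ambient temperature on stably transfected cells; CsF-based pipette, pH 7.4 NaCl bath. Current blockade measured at holding potentials of −120 mV (resting, Kr) and one giving 10% availability (inactivated, Ki), held ≥10 s to equilibrate; apparent Kd calculated from fractional block.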

In another data set the target is CYP3A4 (Homo sapiens, UniProt P08684). The data set is described as follows: Cytochrome P450 (CYP450) Inhibition Assay, CYP3A4 (Vivid fluorescence, BOMCC substrate). The settings on record: human, P450 Baculosomes (recombinant CYP3A4), probe BOMCC (Vivid substrate).
A further data set addresses Nav1.8 (Homo sapiens, UniProt Q9Y5Y9). The format is cell-based.
For another data set, the target named is Nav1.4 (Cricetulus griseus, UniProt A0A9J7H6F9). The format is cell-based, Chinese Hamster.
Another data set deals with Nav1.9 and Nav1.7. The data set is classed as cell-based, Human.
A further data set deals with Nav1.2 (Rattus norvegicus, UniProt P04775).
A further data set relates to Nav1.4 and 1.5. The format is cell-based, rat.
The conditions of data set [2]: rat; intravenous application; concentrations that do not affect general behaviour and motor function; cited from earlier work.

Where only a bound is given, the exact number is not on record here.

CYP3A4, sequence (P08684 whole entry): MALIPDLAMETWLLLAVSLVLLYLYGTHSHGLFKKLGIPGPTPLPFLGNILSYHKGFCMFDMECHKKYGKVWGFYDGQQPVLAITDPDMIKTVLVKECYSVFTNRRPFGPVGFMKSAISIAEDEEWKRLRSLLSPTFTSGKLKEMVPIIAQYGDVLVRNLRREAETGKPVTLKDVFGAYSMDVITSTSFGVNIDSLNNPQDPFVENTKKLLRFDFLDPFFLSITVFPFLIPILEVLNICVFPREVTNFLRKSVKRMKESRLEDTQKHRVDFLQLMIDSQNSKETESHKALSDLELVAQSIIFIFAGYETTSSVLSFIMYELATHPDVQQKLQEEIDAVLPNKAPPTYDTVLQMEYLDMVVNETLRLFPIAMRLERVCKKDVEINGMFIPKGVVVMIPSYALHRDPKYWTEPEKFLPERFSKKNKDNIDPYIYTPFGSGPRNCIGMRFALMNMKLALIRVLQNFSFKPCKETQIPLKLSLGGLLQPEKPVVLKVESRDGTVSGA
Nav1.2, sequence (P04775 whole entry, looked up): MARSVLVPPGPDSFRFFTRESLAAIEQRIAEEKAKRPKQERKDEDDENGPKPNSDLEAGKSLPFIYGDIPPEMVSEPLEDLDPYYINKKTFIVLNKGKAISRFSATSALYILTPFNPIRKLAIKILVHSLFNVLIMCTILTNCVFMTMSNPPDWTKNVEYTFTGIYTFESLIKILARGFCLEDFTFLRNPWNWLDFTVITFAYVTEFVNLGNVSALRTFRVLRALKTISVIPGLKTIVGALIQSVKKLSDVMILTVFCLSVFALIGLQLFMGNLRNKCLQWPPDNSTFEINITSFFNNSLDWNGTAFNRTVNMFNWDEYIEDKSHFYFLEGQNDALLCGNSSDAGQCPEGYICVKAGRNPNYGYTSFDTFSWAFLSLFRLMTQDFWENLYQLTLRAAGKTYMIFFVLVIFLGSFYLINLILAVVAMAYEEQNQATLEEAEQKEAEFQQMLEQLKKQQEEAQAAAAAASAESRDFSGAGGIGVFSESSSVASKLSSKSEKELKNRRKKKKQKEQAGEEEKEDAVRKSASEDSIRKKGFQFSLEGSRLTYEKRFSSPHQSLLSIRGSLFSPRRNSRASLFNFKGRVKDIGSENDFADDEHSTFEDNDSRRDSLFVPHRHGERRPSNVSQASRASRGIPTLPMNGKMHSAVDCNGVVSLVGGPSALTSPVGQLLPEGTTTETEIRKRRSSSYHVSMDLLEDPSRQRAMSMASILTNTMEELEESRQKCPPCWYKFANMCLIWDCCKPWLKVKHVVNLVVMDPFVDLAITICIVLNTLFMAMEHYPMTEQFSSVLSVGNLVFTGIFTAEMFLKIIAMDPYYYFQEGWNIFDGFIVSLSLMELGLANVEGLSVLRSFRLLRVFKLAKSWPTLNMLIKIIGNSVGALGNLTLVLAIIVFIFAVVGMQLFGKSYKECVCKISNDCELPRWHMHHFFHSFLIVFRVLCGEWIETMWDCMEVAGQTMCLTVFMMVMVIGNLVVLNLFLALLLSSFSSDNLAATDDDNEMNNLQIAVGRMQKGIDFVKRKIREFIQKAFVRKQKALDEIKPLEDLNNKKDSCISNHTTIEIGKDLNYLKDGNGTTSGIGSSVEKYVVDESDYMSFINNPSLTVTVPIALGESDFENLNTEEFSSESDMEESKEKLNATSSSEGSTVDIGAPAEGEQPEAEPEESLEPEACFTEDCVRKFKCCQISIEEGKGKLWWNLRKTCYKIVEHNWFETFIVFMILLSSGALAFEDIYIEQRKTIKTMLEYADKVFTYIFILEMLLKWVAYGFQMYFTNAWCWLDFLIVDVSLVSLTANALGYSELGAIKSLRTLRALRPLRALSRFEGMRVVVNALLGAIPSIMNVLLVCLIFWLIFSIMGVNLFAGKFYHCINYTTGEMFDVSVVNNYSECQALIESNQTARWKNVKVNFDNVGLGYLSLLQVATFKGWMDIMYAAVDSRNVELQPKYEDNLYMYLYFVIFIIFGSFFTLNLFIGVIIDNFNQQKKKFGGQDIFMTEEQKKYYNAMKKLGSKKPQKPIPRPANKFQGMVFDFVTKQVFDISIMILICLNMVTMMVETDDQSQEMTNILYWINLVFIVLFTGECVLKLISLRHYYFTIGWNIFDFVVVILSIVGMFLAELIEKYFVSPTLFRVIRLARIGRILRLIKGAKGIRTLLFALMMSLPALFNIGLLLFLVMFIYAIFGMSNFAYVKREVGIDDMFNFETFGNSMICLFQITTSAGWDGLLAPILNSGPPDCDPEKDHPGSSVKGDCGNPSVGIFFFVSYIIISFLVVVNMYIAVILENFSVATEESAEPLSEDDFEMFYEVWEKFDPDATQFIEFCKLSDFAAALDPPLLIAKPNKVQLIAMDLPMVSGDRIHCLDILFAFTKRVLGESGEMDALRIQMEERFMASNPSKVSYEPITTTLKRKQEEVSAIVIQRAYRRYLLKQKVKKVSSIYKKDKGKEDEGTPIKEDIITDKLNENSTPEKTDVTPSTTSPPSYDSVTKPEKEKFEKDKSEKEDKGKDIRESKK
Nav1.4, sequence (A0A9J7H6F9 1-1930): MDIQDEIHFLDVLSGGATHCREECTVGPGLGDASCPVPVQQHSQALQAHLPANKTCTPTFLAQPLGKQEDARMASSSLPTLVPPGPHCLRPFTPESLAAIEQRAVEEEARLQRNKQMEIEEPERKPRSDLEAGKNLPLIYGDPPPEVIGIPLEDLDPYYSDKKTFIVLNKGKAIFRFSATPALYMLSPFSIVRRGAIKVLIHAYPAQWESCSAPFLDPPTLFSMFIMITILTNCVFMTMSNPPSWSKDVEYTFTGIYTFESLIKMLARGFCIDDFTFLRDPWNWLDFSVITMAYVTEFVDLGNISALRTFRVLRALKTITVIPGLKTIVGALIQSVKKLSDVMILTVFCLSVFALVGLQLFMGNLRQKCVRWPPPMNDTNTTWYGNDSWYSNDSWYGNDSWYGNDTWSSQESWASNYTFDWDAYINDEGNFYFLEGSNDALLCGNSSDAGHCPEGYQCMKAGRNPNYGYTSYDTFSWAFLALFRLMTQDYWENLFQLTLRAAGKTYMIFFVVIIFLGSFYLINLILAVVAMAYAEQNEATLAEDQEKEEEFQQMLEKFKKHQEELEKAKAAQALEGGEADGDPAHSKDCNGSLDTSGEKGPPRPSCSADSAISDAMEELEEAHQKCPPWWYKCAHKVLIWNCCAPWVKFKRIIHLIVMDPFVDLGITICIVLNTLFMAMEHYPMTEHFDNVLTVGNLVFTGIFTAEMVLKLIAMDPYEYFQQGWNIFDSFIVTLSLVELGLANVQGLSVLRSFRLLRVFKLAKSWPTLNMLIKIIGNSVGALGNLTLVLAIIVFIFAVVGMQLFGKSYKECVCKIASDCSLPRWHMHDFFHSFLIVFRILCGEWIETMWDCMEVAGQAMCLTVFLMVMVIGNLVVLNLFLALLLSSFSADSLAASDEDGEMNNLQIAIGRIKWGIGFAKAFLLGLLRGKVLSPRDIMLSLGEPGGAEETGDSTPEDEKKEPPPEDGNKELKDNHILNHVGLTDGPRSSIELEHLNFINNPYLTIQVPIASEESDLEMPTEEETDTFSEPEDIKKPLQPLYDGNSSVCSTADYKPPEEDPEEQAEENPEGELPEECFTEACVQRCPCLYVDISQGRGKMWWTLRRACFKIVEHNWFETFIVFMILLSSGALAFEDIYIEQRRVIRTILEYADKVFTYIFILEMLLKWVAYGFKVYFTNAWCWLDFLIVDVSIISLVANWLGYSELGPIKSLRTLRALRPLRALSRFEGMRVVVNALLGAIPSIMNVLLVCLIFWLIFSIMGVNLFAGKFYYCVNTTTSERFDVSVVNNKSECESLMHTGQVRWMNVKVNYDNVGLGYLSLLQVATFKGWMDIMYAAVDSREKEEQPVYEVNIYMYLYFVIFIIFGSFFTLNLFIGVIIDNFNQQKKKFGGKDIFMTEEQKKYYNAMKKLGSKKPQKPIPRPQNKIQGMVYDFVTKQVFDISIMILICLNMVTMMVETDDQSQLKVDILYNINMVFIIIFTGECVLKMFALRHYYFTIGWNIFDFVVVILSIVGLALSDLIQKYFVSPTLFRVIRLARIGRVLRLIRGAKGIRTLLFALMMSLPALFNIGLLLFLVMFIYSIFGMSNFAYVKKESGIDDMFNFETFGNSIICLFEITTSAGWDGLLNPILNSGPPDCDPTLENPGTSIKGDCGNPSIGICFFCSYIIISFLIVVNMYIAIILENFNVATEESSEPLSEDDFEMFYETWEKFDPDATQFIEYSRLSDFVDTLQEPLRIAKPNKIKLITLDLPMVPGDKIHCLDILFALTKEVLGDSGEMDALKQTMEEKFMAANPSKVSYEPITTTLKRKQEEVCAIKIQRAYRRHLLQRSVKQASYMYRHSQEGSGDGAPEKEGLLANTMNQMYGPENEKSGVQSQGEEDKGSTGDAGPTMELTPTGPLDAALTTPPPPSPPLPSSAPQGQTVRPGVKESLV

For `Cc1noc2cc3c(cc12)C1(CO3)C(=O)N(Cc2ccccn2)c2ccccc21` (centres unmarked) [Example 9.24, 3-methyl-1′-(pyridin-2-ylmethyl)spiro[furo[3,2-f][1,2]benzisoxazole-5,3′-indol]-2′(1′H)-one], the melting point – broadly, the temperature, or range, at which the solid turns liquid – was in the range of 142 to 143 °C. In the data set on sodium channel (activity level class), the IC50 (usually the concentration that gives 50% inhibition) fell in the range of 1 to 100 nM. The same molecule came in with a Ki in data set [1] of over 300 nM. On CYP3A4, the inhibition (in general, the change of the read-out against control, counted positive when it falls) at 10 µM is over 50%.

In turn, `Cc1nc(-c2ccc(CN3C(=O)C4(COc5cc6c(cc54)CCO6)c4ccccc43)cc2)no1` (centres unmarked) [Example 11.14, 1′-[4-(5-methyl-1,2,4-oxadiazol-3-yl)benzyl]-5,6-dihydrospiro[benzo[1,2-b:5,4-b′]difuran-3,3′-indol]-2′(1′H)-one] gave a melting point of 185 to 186 °C. For the same molecule, the 50% inhibitory concentration (IC50) in the data set with sodium channel fell in the range of 1 to 100 nM. This molecule yielded a Ki in data set [1] of under 300 nM. The inhibition at 10 µM at CYP3A4 was under 50%.

With `Cc1nc(-c2cccc(CN3C(=O)C4(COc5cc6c(cc54)CCO6)c4ccccc43)c2)no1` (centres unmarked) [Example 11.27, 1′-[3-(5-methyl-1,2,4-oxadiazol-3-yl)benzyl]-5,6-dihydrospiro[benzo[1,2-b:5,4-b′]difuran-3,3′-indol]-2′(1′H)-one], the melting point was in the range of 209 to 213 °C. In addition, in the data set on sodium channel, the IC50 was 1 to 100 nM. In [1], this molecule yielded a Ki of under 300 nM. Besides, the inhibition at 10 µM on CYP3A4 is over 50%.

`CN(C)C(=O)c1ccc(CN2C(=O)C3(COc4cc5c(cc43)OCCO5)c3ccccc32)o1` (centres unmarked) [Example 11.33, N,N-dimethyl-5-[(2′-oxo-2,3-dihydrospiro[furo[2,3-g][1,4]benzodioxine-8,3′-indol]-1′(2′H)-yl)methyl]furan-2-carboxamide] came in with a melting point of 224 to 226 °C. Further, the IC50 in the data set on sodium channel lay in the range of 100 to 1000 nM. This molecule showed a Ki in data set [1] of under 300 nM. Also, the inhibition at 10 µM on CYP3A4 is over 50%.

In the case of `Cc1nc(-c2ccc3c(c2)OCC32C(=O)N(Cc3ccccn3)c3ccccc32)no1` (centres unmarked) [Example 11.85, 6-(5-methyl-1,2,4-oxadiazol-3-yl)-1′-(pyridin-2-ylmethyl)spiro[1-benzofuran-3,3′-indol]-2′(1′H)-one], the melting point was 147 to 148 °C. Further, in the data set on sodium channel, the IC50 is 100 to 1000 nM. For the same molecule, the Ki in data set [1] was over 300 nM. Besides, at CYP3A4, the inhibition at 10 µM was under 50%.

As for `NC1=N[C@H](O)[C@H]2[C@H]3O[C@]4(O)O[C@@H]([C@@H](O)[C@@]2(N1)[C@@H]4O)[C@]3(O)CO` [TTX, tetrodotoxin], the “block of the increase in [14C] guanidine influx” value was “TTX partially blocked influx” at Nav1.8; “completely blocked using TTX” on Nav1.4; “background was partially blocked” in the data set with Nav1.9 and Nav1.7; “guanidine influx was completely” at Nav1.2; “partially blocked by TTX at 100 nM” in the data set on Nav1.4 and 1.5.

Consider `CCN(CC)CC(=O)Nc1c(C)cccc1C` [lidocaine], for which the “effect on ectopic activity and tactile allodynia” value in data set [2] was “suppress the ectopic activity and reverse the tactile allodynia”.
